This note sets out measurements from ChEMBL document CHEMBL3797196, “Discovery of 3-aminopicolinamides as metabotropic glutamate receptor subtype 4 (mGlu4) positive allosteric modulator warheads engendering CNS exposure and in vivo efficacy” (Bioorg Med Chem Lett, 2016).

Series [1] addresses T1, Metabotropic glutamate receptor 4 (Homo sapiens, UniProt Q14833). Briefly: Positive allosteric modulation of human mGlu4 receptor expressed in CHO cells coexpressing Gqi5 assessed as potentiation of glutamate-induced calcium mobilization at 30 uM relative to (-)-PHCCC. Format: functional, cell-based. (A change in cytosolic calcium serves as a functional read-out for many receptors and channels.)

Series [2] concerns the target T1, Metabotropic glutamate receptor 4. Briefly: Positive allosteric modulator activity at human mGlu4 receptor expressed in CHO cells expressing Gqi5 by calcium mobilization assay. Type of series: functional, cell-based. The conditions noted are these: for EC50: read-out: pEC50 (converted); for pEC50: read-out: EC50.
For a further series, the system named is Plasma. Description: Fraction unbound in rat plasma. Format: ADME, cell-free.
The next series concerns the target T2, Cytochrome P450 1A2 (Homo sapiens, UniProt P05177).
T2 sequence (P05177 whole entry): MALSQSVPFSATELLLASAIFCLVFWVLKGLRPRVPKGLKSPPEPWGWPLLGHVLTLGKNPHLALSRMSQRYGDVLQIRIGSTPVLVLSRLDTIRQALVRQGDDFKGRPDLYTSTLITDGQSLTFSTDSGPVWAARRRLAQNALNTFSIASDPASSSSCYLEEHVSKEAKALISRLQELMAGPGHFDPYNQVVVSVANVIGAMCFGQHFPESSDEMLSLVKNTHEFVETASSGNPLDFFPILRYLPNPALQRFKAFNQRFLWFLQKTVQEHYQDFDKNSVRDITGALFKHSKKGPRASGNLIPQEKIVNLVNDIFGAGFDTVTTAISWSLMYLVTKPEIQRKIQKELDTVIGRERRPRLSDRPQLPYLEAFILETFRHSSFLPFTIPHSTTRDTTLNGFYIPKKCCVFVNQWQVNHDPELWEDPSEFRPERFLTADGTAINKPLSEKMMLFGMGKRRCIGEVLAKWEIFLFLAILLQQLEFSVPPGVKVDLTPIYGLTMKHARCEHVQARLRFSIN
Briefly: Inhibition of CYP1A2 in human liver microsomes using acetaminophen as substrate. Type of series: ADME. Background: Microsomes from liver hold many membrane-bound enzymes, among them those of drug oxidation.

Series [3] has as its system Rattus norvegicus. Description: Reversal of haloperidol-induced catalepsy in orally dosed Sprague-Dawley rat administered 60 mins after haloperidol-challenge measured after 30 mins. Type of series: functional. The conditions noted are these: po, read-out: MED.
Another series deals with Cytochrome P450 3A4 (Homo sapiens, UniProt P08684). Briefly: Inhibition of CYP3A4 in human liver microsomes using 1-hydroxymidazolam as substrate. Format: ADME.
Series [4] in a line: Clearance in Sprague-Dawley rat by LC/MS analysis. Format: ADME, organism-based. As to conditions: in vivo.
Series [5] in a line: Intrinsic clearance in rat hepatic microsomes. As to conditions: read-out: CLH. Format: ADME, Liver.
Series [6] can be described thus: Fraction unbound in human plasma. Type of series: ADME, cell-free.
Series [7] is described as follows: Ratio of drug level in brain of Sprague-Dawley rat model of haloperidol-induced catalepsy at 1 to 10 mg/kg, po to EC50 for positive allosteric modulator activity at rat mGlu4 receptor.
Series [8] concerns Brain. Description: Partition coefficient in brain of Sprague-Dawley rat model of haloperidol-induced catalepsy at 1 to 10 mg/kg, po administered 60 mins after haloperidol-challenge measured after 30 mins. Type of series: ADME, organism-based. As to conditions: 0.5 h.
For series [9], the system named is Rattus norvegicus. Description: Reversal of haloperidol-induced catalepsy in Sprague-Dawley rat at 3 mg/kg, po administered 60 mins after haloperidol-challenge measured after 30 mins. Format: functional, organism-based.
For a further series, the target named is Cytochrome P450 2D6 (Homo sapiens, UniProt P10635). Description: Inhibition of CYP2D6 in human liver microsomes using dextrophan tartarate as substrate. Format: ADME.
The nature of series [10]: Binding affinity to human P-gp assessed as efflux ratio by cell based assay. Format: ADME.
A short description of series [11]: Half life in Sprague-Dawley rat by LC/MS analysis. Format: ADME, organism-based. The conditions noted are these: in vivo.
Series [12] deals with Metabotropic glutamate receptor 4 (Rattus norvegicus, UniProt P31423). Briefly: Positive allosteric modulator activity at rat mGlu4 receptor.
The nature of series [13]: Ratio of drug level in brain to plasma in rat at 0.25 mg/kg, iv infused at 0.25 hr rate through cassette dosing schedule. Type of series: ADME, organism-based.
Series [14] is described as follows: Drug level in brain of Sprague-Dawley rat model of haloperidol-induced catalepsy at 1 to 10 mg/kg, po administered 60 mins after haloperidol-challenge measured after 30 mins. Format: ADME, organism-based. As to conditions: read-out: Drug uptake.
The nature of series [15]: Intrinsic clearance in human hepatic microsomes. Type of series: ADME, Liver. The conditions noted are these: read-out: CLH.
Series [16] can be described thus: Volume of distribution at steady state in Sprague-Dawley rat by LC/MS analysis. The conditions noted are these: in vivo, read-out: Vdss. Format: ADME, organism-based.
In a further series the target is Cytochrome P450 2C9 (Homo sapiens, UniProt P11712). Description: Inhibition of CYP2C9 in human liver microsomes using 4-hydroxydiclofenac as substrate. Format: ADME.
Series [17] concerns Rattus norvegicus. Briefly: Reversal of haloperidol-induced catalepsy in Sprague-Dawley rat at 1 mg/kg, po administered 60 mins after haloperidol-challenge measured after 30 mins. Format: functional, organism-based.
The test system of series [18] is Rattus norvegicus. Description: Reversal of haloperidol-induced catalepsy in Sprague-Dawley rat at 10 mg/kg, po administered 60 mins after haloperidol-challenge measured after 30 mins. Type of series: functional, organism-based.
In series [19] the test system is Brain. Briefly: Partition coefficient in brain of Sprague-Dawley rat model of haloperidol-induced catalepsy at 1 mg/kg, po administered 60 mins after haloperidol-challenge measured after 30 mins. Format: ADME, organism-based. The conditions noted are these: 0.5 h.
Series [20] is described as follows: Drug level in brain of Sprague-Dawley rat model of haloperidol-induced catalepsy at 1 mg/kg, po administered 60 mins after haloperidol-challenge measured after 30 mins. Type of series: ADME, organism-based. As to conditions: read-out: Drug uptake.
The nature of series [21]: Ratio of drug level in brain of Sprague-Dawley rat model of haloperidol-induced catalepsy at 1 mg/kg, po to EC50 for positive allosteric modulator activity at rat mGlu4 receptor.

pEC50, pIC50: −log10 of the molar value. Activity calls are given as the source filed them. Where only a bound is given, the exact number is not on record here.

T1 sequence (Q14833 whole entry): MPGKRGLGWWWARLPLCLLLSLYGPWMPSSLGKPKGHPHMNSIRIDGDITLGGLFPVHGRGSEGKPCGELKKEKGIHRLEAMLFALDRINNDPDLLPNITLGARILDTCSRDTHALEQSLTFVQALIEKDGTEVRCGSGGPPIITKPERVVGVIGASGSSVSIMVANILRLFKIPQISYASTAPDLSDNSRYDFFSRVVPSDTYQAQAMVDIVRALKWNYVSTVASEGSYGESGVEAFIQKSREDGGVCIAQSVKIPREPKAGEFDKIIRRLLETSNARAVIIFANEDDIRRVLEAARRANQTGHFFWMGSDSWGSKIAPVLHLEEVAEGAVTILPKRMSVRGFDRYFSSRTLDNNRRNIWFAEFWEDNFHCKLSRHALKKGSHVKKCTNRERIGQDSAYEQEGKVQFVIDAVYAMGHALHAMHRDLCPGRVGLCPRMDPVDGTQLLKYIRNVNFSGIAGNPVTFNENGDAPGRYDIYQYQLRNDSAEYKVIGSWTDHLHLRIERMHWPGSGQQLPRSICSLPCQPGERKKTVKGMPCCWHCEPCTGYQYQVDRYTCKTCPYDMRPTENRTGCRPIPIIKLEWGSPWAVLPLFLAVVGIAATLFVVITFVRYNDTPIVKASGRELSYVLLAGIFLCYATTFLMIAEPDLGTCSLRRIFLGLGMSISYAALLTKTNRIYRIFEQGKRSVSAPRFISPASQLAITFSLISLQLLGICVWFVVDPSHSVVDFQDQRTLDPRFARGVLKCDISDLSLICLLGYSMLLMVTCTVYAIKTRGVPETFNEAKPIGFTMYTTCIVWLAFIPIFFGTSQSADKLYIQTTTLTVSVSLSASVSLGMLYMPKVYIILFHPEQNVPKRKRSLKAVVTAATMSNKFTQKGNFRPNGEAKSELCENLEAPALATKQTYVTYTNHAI
Sequence of Metabotropic glutamate receptor 4 (Rattus norvegicus, UniProt P31423) (P31423 whole entry, the tested form may be a part): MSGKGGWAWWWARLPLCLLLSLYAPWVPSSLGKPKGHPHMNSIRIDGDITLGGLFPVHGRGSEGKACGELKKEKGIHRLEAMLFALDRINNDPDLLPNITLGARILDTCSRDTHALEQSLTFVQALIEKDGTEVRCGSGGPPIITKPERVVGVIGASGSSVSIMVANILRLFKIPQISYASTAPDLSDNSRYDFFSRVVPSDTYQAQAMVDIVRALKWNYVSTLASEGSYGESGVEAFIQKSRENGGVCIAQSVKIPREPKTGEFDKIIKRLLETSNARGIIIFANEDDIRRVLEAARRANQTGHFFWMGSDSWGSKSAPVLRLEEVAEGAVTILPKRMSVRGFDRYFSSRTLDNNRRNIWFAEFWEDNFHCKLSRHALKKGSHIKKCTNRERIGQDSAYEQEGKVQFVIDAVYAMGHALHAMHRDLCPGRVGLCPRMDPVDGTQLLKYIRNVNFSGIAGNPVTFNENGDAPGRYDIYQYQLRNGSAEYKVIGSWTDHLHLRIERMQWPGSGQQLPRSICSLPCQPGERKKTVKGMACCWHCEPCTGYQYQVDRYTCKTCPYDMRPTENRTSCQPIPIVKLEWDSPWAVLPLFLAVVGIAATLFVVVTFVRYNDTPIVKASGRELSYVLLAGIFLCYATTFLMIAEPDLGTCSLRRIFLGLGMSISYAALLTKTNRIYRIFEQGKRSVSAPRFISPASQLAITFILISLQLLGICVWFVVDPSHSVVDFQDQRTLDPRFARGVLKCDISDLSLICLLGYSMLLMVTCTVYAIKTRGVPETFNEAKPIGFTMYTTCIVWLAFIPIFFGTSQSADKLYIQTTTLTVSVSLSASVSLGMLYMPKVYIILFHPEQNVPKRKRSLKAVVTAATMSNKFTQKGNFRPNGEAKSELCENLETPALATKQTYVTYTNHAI
Sequence of Cytochrome P450 3A4 (P08684 whole entry): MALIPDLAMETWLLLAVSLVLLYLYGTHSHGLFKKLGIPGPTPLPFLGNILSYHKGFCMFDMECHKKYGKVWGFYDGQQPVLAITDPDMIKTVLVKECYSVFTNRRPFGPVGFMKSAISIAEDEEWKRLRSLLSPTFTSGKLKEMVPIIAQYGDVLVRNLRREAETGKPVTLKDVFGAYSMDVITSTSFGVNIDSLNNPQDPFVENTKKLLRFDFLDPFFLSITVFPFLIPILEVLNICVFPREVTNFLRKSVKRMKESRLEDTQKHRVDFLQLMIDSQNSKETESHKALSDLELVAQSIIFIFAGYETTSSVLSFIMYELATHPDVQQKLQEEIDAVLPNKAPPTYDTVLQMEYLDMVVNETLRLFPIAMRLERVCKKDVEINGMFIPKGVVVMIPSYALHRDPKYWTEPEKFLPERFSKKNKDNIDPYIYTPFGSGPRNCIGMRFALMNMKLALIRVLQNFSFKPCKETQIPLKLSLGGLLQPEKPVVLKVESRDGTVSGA
Sequence of Cytochrome P450 2D6 (P10635 whole entry): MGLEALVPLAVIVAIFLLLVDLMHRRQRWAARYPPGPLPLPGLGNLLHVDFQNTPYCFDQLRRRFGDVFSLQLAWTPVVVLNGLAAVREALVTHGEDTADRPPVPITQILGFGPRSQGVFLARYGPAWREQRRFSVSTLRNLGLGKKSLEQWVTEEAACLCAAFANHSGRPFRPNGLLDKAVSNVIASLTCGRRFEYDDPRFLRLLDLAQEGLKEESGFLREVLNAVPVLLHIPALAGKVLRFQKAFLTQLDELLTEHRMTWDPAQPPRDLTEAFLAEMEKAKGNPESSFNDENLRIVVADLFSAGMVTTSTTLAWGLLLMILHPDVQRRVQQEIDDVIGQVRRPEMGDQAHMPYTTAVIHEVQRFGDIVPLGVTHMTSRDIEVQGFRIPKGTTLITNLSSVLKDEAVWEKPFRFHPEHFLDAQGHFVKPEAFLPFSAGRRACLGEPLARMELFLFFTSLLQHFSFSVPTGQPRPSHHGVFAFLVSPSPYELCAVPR
Sequence of Cytochrome P450 2C9 (P11712 whole entry): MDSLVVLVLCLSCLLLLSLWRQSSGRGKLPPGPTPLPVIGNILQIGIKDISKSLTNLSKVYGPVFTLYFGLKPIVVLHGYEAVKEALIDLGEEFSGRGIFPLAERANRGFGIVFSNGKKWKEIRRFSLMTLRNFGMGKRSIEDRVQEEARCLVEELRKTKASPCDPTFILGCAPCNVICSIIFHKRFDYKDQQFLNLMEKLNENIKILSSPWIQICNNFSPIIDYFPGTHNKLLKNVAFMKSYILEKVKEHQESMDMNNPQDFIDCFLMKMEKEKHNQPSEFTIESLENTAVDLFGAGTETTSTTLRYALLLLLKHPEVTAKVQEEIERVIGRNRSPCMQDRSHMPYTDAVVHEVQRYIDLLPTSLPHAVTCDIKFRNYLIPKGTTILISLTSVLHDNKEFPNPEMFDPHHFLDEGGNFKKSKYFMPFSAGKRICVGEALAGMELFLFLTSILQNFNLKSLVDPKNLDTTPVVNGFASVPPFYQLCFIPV

For `Nc1cccnc1C(=O)Nc1ccc(N2Cc3ncccc3C2=O)c(Cl)c1`, the %max in [1] was 68.9%. In addition, in [2], the EC50 is 1260 nM.
Usually pIC50 stands for the IC50 on a negative log10 scale, so that one unit is a factor of ten. A low value points to a high IC50. By clearance is commonly meant a measure of how efficiently the substance is removed, as volume per time. A low value points to inefficient removal. For orientation: half-life means the time needed for the level to fall by half in the phase considered. For orientation: pEC50 means −log10 of the EC50, conventionally taken in molar units. Consider `CCc1cnc(Oc2ccc(NC(=O)c3ncccc3N)cc2Cl)nc1`, for which the Fu (in the series on Plasma; in [6]) was 0.004 each time. For the same compound, the pIC50 against Cytochrome P450 1A2 was 5.59; against Cytochrome P450 3A4 it was 4.68; against Cytochrome P450 2D6 it was under 4.52; at Cytochrome P450 2C9, under 4.52. In addition, the %max in [1] was found to be 97.9%. The minimal effective dose with Rattus norvegicus [3] was determined as 1 mg/kg. In series [4], the clearance came to 13.7 mL/min/kg. In addition, the figures for the CLint scaled in [5] and in series [15] were 46.1 mL/min/kg and 17.7 mL/min/kg, respectively. The results for the Ratio in series [7] and in series [10] were 3.5 and 1.9, respectively. Besides, in [2], the EC50 is 64.6 nM. The Kp in the series with Brain [8] is 0.2; in series [13] it was 0.36. In addition, the result in the series on Rattus norvegicus [9] was Active. Besides, the half-life in series [11] is 1.5 h. The pEC50 in series [12] was 7.33. The concentration at 0.5 h in [14] was determined as 172 nM. Also, the Vd in series [16] is 0.86 L/kg.
For `COc1ccc2c(c1)C(=O)N(c1ccc(NC(=O)c3ncccc3N)cc1Cl)C2`, the %max in series [1] stood at 71.7%. In [2], the EC50 was 316 nM.
In the case of `CC1(C2CC2)CC(=O)N(c2ccc(NC(=O)c3ncccc3N)cc2Cl)C1` (stereo not given), the %max in series [1] is 66.2%. Also, the EC50 in [2] is 2820 nM.
On the same counts, the results for `CC(C)CC1CC(=O)N(c2ccc(NC(=O)c3ncccc3N)cc2Cl)C1` (stereo not given) are 74.5% and 1620 nM.
As for `Cc1ncc(Oc2ccc(NC(=O)c3ncccc3N)cc2Cl)cn1`, the %max in [1] was 89.8%. Further, the EC50 in [2] was 1350 nM.
Taken in the same sequence, the figures for `Cc1cccc2c1C(=O)N(c1ccc(NC(=O)c3ncccc3N)cc1Cl)C2=O` were 122% and 692 nM.
Consider `CC1(C)CC(=O)N(c2ccc(NC(=O)c3ncccc3N)cc2Cl)C1`, for which, in series [1], the %max was determined as 12.7%. Further, the negative-log EC50 (pEC50) in series [2] is under 5.00.
As to `CCc1cnc(Oc2ccc(NC(=O)c3nccnc3N)cc2Cl)nc1`, in series [1], the %max was 104%. Also, the pEC50 in series [2] is 6.53.
Take `Fc1ccc(Nc2n[nH]c3cccnc23)cc1Cl`: the outcome with Rattus norvegicus [17] and with Rattus norvegicus [18] was Active.
Regarding `Nc1cccnc1C(=O)Nc1ccc(N2CC(Cc3ccccc3)CC2=O)c(Cl)c1` (stereo not given), the %max in series [1] was determined as 45.3%. For the same compound, the EC50 in [2] was 759 nM.
For the compound `CCc1cnc(Oc2ccc(NC(=O)c3ccncc3N)cc2Cl)nc1`, in series [1], the %max was 44.2%. Also, the negative-log EC50 (pEC50) in [2] was under 5.00.
Turning to `Nc1cccnc1C(=O)Nc1ccc(N2CC3(CCCC3)CC2=O)c(Cl)c1`, the %max in [1] is 13.8%. Further, in series [2], the pEC50 is under 5.00.
Regarding `Nc1cccnc1C(=O)Nc1ccc(N2Cc3ccccc3CC2=O)c(Cl)c1`, in [1], the %max came to 63.2%. For the same compound, the EC50 in [2] is 2190 nM.
On to `Nc1cccnc1C(=O)Nc1ccc(N2C(=O)C3CCC2C3)c(Cl)c1` (stereo not given), for which the %max in [1] amounted to 47.7%. Moreover, in series [2], the pEC50 is under 5.00.
Turning to `Nc1cccnc1C(=O)Nc1ccc(N2CC(c3cccnc3)CC2=O)c(Cl)c1` (stereo not given), the %max in [1] was found to be 92.8%. Besides, in [2], the EC50 is 2510 nM.
Taken in the same sequence, the figures for `Nc1cccnc1C(=O)Nc1ccc(N2CC(c3c(F)cccc3Cl)CC2=O)c(Cl)c1` (stereo not given) were 75.9% and 1860 nM.
As for `Nc1cccnc1C(=O)Nc1ccc(N2CCCC2=O)c(Cl)c1`, the %max in [1] is 39.6%. Besides, the pEC50 in series [2] was under 5.00.
In the case of `O=C(Nc1ccc(N2C(=O)c3ccccc3C2=O)c(Cl)c1)c1ncccc1O`, the %max in series [1] was found to be 115%. The negative logarithm of the EC50 (pEC50) in series [2] is 6.90.
Consider `CC1c2ccccc2C(=O)N1c1ccc(NC(=O)c2ncccc2N)cc1Cl` (stereo not given), for which the %max in series [1] is 76.8%. Further, the EC50 in [2] is 3980 nM.
In the case of `Nc1cccnc1C(=O)Nc1ccc(N2CCc3ccccc3C2=O)c(Cl)c1`, the %max in [1] is 60.7%. In [2], the EC50 is 912 nM.
Regarding `Nc1cccnc1C(=O)Nc1cccc(Cl)c1`, the %max in [1] came out at 88.1%. In series [2], the pEC50 is 6.23 and the EC50 is 575 nM.
`Nc1cccnc1C(=O)Nc1ccc(N2Cc3ccc(Cl)cc3C2=O)c(Cl)c1`: in [1], the %max amounted to 42.3%. In series [2], the pEC50 is under 5.00.
As to `Nc1cccnc1C(=O)Nc1ccc(N2CC3(CCCCC3)CC2=O)c(Cl)c1`, in series [1], the %max worked out at 52%. Besides, the EC50 in series [2] is 1290 nM.
Turning to `Nc1cccnc1C(=O)Nc1ccc(N2C(=O)c3ccccc3C2=O)c(Cl)c1`, the figures for the Fu (in the series with Plasma; in series [6]) were 0.003 and 0.007, respectively. Further, the pIC50 against Cytochrome P450 1A2 is under 4.52; at Cytochrome P450 3A4, under 4.52; on Cytochrome P450 2D6 it was under 4.52; against Cytochrome P450 2C9, 5.14. In addition, the outcome in the series with Rattus norvegicus [17] was Active. The %max in series [1] came to 89.1%. This compound gave a clearance in series [4] of 3.98 mL/min/kg. The values for the CLint scaled in [5] and in [15] were 51 mL/min/kg and 5.8 mL/min/kg, respectively. The results for the Kp (in the series with Brain [19]; in [13]) were 0.3 and 1.31, respectively. Moreover, the EC50 in series [2] was 95.5 nM. Also, the Ratio came out at 1.2 in series [10] and 2 in [21]. Besides, in series [11], the half-life was 3.7 h. The compound further showed a negative logarithm of the EC50 (pEC50) in [12] of 6.89. The concentration at 0.5 h in series [20] is 334 nM. Further, the Vd in series [16] came to 0.85 L/kg.
With `Nc1cccnc1C(=O)Nc1ccc(N2Cc3ccccc3C2=O)c(Cl)c1`, the %max in series [1] came to 43.9%. Further, the EC50 in series [2] is 234 nM.
